The text below walks through data of ChEMBL document CHEMBL1158841, “Neoglycorandomization and chemoenzymatic glycorandomization: two complementary tools for natural product diversification” (J Nat Prod, 2005).

What is called kcat is the maximal rate divided by the concentration of active sites. In general, IC50 refers to the concentration that gives 50% inhibition.

The nature of test [1]: Activity of AknS in presence of AknT.
For another test, the system named is DU-145. In words: Cytotoxicity against human DU145 cells after 72 hrs by calcein AM assay. Type of test: functional, cell-based. The following applies: DU-145, 72 h, pooled result: one value given for 9 cell lines, strains, targets or settings.

As to `CC[C@@]1(O)C[C@H](O[C@H]2C[C@H](N(C)C)[C@H](O[C@H]3C[C@H](O)[C@H](O[C@H]4CCC(=O)[C@H](C)O4)[C@H](C)O3)[C@H](C)O2)c2c(cc3c(c2O)C(=O)c2c(O)cccc2C3=O)[C@H]1C(=O)OC`, the turnover number (kcat) in test [1] came out at 0.00367 s⁻¹. As to `C[C@H]1O[C@@H](O[C@H]2[C@@H](O)C[C@H](O[C@H]3[C@@H](O)C[C@H](O[C@H]4CC[C@@]5(C)[C@H](CC[C@@H]6[C@@H]5CC[C@]5(C)[C@@H](C7=CC(=O)OC7)CC[C@]65O)C4)O[C@@H]3C)O[C@@H]2C)C[C@H](O)[C@@H]1O` [DIGITOXIN], the IC50 in the test on DU-145 is 440 nM.
